Results on 2 molecules are retold here after ChEMBL document CHEMBL1201862, “PubChem BioAssay data set” (2004).

Assay [1] can be described thus: NIH-3T3 fibroblast cytotoxicity, dose response, cytotoxicity control, cell-based, fluorescence, Alamar Blue, secondary assay (AID 2327).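 Further: NIH-3T3 mouse fibroblasts cultured with fluconazole at 8 µg/mL.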 In kind it is functional. On the technique in general: Alamar Blue is a resazurin reagent that responds to reducing activity.
Assay [2] is described as follows: insulin promoter down-regulators in MIN6 cells, imaging, high-content screening, mouse beta cells (AID 1628). Type of assay: functional.
Assay [3] deals with Streptococcus sp. 'group A'. As to the kind of experiment: growth inhibition of control SK(-) GAS strain, dose response, counter-screen for streptokinase expression inhibitor project, luminescence, kanamycin, BacTiterGlo, confirmation (AID 1900). Type of assay: functional, organism-based. Background: A counterscreen serves to expose hits that act by an unwanted route or on another target.

A short description of assay [4]: cells. In kind it is functional, cell-based.
Assay [5] can be described thus: cytotoxicity in MIN6 insulinoma cells, dose response, cytotoxicity control, cell-based, mouse insulinoma (AID 2122).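 Further: confirmatory high-throughput counterscreen run to flag cytotoxic compounds; mouse MIN-6 beta cells carrying an insulin promoter eGFP reporter.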 In kind it is functional.
The nature of assay [6]: C. albicans growth with fluconazole, confirmation, fluorescence, retest (AID 2467). In kind it is functional, cell-based.
Assay [7] is described as follows: cells. In kind it is functional, cell-based. The source holds these as a separate data set.
Assay [8] has as its target T1, Serine/threonine-protein phosphatase (Candida dubliniensis (strain CD36 / CBS 7987 / NCPF 3949 / NRRLY-17841) (Yeast), UniProt B9W6M3).
T1 sequence (B9W6M3 whole entry): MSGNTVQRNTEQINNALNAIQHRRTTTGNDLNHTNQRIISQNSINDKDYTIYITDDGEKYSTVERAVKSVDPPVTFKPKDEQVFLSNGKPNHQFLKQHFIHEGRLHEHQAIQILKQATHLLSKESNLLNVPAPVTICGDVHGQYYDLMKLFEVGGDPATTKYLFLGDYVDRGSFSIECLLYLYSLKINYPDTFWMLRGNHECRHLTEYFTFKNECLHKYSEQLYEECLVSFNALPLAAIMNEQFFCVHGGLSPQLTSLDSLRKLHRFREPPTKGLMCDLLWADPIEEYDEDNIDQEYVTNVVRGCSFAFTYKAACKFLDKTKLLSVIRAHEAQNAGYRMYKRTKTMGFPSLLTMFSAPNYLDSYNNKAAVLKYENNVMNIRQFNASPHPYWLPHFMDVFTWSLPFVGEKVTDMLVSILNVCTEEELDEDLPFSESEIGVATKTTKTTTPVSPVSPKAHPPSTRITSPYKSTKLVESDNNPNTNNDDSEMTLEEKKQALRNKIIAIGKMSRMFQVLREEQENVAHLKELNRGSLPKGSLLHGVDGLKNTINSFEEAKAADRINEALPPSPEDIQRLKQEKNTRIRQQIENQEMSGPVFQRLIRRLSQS
Put plainly: calcineurin pathway inhibitors in yeast reporter, dose response, S. cerevisiae, CDRE-lacZ, luminescence, secondary (AID 2388).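 Further: yeast reporter cells carrying a calcineurin-responsive lacZ construct stimulated with calcium chloride; luminescent beta-galactosidase reporter signal in whole cells rather than isolated phosphatase activity; potency for inhibition where a drop in reporter signal means calcineurin blockade.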 Type of assay: functional, cell-based.

Another assay relates to Streptococcus. Put plainly: Group A Streptococcus viability loss, dose response, counter-screen for streptokinase expression inhibitor project, luminescence, BacTiterGlo (AID 1915).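 Further: potency for reduction of bacterial viability or growth.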 In kind it is functional, organism-based.
Assay [9] addresses ATP-dependent molecular chaperone HSP82 (Candida albicans (strain WO-1) (Yeast), UniProt C4YTQ8). As to the kind of experiment: loss of DOC-induced GRE-beta-galactosidase reporter signal, dose response, Hsp90 inhibitor project, S. cerevisiae, luminescence (AID 2400).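 Further: beta-galactosidase luminescence from glucocorticoid response element reporter as proxy for Hsp90 function; inhibitor potency where signal loss means Hsp90 inhibition.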 In kind it is functional, cell-based.

Structures are written as SMILES. Calls of active or inactive are those of the source. For most assays here, no stated cut-off is given here; in the data, actives have a measured EC50 and inactives only a lower limit.

Chain of ATP-dependent molecular chaperone HSP82 (C4YTQ8 whole entry): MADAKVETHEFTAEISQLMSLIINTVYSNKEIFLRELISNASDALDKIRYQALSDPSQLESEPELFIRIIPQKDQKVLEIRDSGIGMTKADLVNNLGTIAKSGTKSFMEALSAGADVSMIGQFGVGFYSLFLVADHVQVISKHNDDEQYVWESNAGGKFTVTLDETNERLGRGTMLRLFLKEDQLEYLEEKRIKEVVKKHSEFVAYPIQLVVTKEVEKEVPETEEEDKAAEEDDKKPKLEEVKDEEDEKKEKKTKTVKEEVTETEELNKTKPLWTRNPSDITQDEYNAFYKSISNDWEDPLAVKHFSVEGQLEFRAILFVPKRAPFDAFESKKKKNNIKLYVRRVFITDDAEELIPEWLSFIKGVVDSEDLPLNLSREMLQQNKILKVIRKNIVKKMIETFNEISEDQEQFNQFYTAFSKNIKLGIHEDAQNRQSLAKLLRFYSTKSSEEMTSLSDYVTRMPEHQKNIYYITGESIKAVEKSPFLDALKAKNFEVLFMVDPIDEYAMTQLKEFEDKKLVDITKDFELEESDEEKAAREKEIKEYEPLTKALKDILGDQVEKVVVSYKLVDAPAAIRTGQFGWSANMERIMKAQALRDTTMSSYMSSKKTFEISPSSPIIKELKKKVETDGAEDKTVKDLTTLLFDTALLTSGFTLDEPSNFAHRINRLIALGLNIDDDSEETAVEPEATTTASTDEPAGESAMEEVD

Broadly, the EC50 is the concentration giving half of the maximal effect. What is called IC50 is the concentration needed to halve the response being measured. On to `Oc1ccc(N=Nc2ccc3c(c2)OCCO3)c2cccnc12`, for which the 50% effective concentration (EC50) in assay [1] was 13.7 µM (inconclusive); in assay [3] it was 0.352 µM (active); in the assay “cells [4]”, 5.17 µM (active); in [6] it was 1.24 µM (active); in “cells [7]”, 45.6 µM (active); in assay [8] it was > 180 µM (inactive). Further, the values for the concentration giving a half-maximal response (EC50) (in the assay with Streptococcus; in [9]) were 1.15 µM (active) and 12.8 µM (active), respectively. For the same molecule, the figures for the IC50 in assay [2] and in assay [5] were 2.15 µM (active) and 1.37 µM (active), respectively.
Consider `Cc1ccc(NC(=O)CNC(=O)c2ccc(Oc3ccccc3)cc2)nc1`, for which the EC50 in [1] is > 150 µM (inactive); in [6], 1.24 µM (active); in assay [8] it was > 180 µM (inactive); in [9], 21.7 µM (active).
